ChEMBL document CHEMBL5338818, “Discovery of the First Potent, Selective, and In Vivo Efficacious Polo-like Kinase 4 Proteolysis Targeting Chimera Degrader for the Treatment of TRIM37-Amplified Breast Cancer” (J Med Chem, 2023)
Activity calls are given as the source filed them. No cut-off for these calls is given here.

Legend:
[1] = Stability in human plasma assessed as compound remaining at 100 uM after 60 mins by LC-MS/MS analysis (reference value: 100%); format: ADME, cell-free; conditions: read-out: Stability
[2] = system: MCF7; test: Antitumor activity against human MCF7 cells xenografted in nu/nu mouse assessed as induction of apoptosis at 20 mg/kg, ip measured once every other day for 21 days by TUNEL assay; format: functional, organism-based; conditions: time 21.0 day
[3] = Toxicity in nu/nu mouse xenografted with human MCF7 cells assessed as effect on spleen at 20 mg/kg, ip administered once every other day for 21 days by HE staining based analysis; format: organism-based; conditions: in vivo, 504 h, time 21 day
[4] = Metabolic stability in human liver microsomes assessed as intrinsic clearance at 100 uM incubated for 60 mins in presence of NADPH by LC-MS/MS analysis; format: ADME, Microsome; conditions: read-out: CLH
[5] = biological target: T1, Protein cereblon/Serine/threonine-protein kinase PLK4 (Homo sapiens, UniProt O00444+Q96SW2); test: Protac activity at CRBN/PLK4 in human MCF7 cells at 0.1 uM incubated for 48 hrs by Western blot analysis; format: cell-based
Target sequence in this assay (O00444 whole entry, looked up): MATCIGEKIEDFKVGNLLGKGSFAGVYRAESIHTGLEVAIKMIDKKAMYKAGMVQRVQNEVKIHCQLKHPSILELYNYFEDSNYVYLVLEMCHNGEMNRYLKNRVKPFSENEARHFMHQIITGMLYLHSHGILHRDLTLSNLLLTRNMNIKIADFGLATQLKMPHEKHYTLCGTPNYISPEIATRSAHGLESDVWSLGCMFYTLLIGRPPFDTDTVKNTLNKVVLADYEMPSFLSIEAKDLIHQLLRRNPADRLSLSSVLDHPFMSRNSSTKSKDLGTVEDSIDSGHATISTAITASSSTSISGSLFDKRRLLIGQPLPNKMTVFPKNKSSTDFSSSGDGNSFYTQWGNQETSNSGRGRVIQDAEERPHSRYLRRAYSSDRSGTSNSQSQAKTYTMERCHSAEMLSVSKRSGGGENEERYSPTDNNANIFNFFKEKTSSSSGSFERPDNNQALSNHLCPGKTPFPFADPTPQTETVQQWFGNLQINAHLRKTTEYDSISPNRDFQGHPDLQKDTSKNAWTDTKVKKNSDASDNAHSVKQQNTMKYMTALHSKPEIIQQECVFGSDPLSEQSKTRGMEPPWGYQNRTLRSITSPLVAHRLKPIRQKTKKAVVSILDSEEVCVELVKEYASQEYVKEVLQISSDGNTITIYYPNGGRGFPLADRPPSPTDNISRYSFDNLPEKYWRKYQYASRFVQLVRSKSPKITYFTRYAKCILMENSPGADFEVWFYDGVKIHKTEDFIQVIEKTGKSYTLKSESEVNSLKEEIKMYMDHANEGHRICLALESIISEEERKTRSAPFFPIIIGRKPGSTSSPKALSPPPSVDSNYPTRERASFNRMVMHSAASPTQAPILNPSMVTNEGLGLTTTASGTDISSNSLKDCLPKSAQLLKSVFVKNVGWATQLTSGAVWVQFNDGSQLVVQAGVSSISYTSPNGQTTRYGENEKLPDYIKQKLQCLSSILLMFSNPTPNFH
Target sequence in this assay (Q96SW2 whole entry, looked up): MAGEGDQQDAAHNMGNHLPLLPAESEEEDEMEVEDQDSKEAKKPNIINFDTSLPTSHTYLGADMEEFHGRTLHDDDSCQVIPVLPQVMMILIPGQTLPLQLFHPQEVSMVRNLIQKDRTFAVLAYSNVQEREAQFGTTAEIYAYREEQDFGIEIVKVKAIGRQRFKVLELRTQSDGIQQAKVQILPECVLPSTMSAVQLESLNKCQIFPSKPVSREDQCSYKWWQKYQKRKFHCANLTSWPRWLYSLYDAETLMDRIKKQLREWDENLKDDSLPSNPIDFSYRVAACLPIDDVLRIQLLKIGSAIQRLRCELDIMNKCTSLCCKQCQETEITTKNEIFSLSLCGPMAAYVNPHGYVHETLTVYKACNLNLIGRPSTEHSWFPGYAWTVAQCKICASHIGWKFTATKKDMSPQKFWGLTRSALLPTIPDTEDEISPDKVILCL

[6] = Apparent permeability across basolateral to apical side in human Caco-2 cells at 2 uM incubated for 2 hrs by LC-MS/MS analysis; format: ADME, cell-based
[7] = system: MCF7; test: Induction of apoptosis in human MCF7 cells at 0.3 to 3 uM incubated for 36 hrs by Annexin V-FITC//propidium iodide staining based flow cytometry analysis; format: functional, cell-based; conditions: dose 0.3-3 µM
[8] = Stability in human plasma assessed as compound remaining at 100 uM after 120 mins by LC-MS/MS analysis (reference value: 100%); format: ADME, cell-free; conditions: read-out: Stability
[9] = Bioavailability in ICR mouse at […] measured upto 24 hrs by LC-M/MS analysis; format: ADME, organism-based; conditions: in vivo
[10] = system: MCF7; test: Antitumor activity against human MCF7 cells xenografted in nu/nu mouse assessed as tumor growth inhibition at 20 mg/kg, ip administered once every other day for 21 days; format: functional; conditions: MCF7, 504 h, time 21 day, read-out: TGI
[11] = Observed clearance in ICR mouse at 2 mg/kg, iv measured upto 24 hrs by LC-M/MS analysis; format: ADME, organism-based; conditions: in vivo
[12] = Metabolic stability in rat liver microsomes assessed as compound remaining at 100 uM incubated for 60 mins by LC-MS/MS analysis; format: ADME, Microsome; conditions: read-out: Stability
[13] = system: MCF7; test: Antiproliferative activity against human MCF7 cells incubated for 5 days by CCK-8 assay; conditions: MCF7, 120 h
[14] = Toxicity in nu/nu mouse xenografted with human MCF7 cells assessed as change in body weight at 20 mg/kg, ip administered once every other day for 21 days; format: organism-based; conditions: in vivo, 504 h, time 21 day
[15] = Metabolic stability in mouse liver microsomes assessed as intrinsic clearance at 100 uM incubated for 60 mins in presence of NADPH by LC-MS/MS analysis; format: ADME, Microsome; conditions: read-out: CLH
[16] = Toxicity in nu/nu mouse xenografted with human MCF7 cells assessed as effect on liver at 20 mg/kg, ip administered once every other day for 21 days by HE staining based analysis; format: organism-based; conditions: in vivo, 504 h, time 21 day
[17] = Metabolic stability in mouse liver microsomes assessed as half life at 100 uM incubated for 60 mins in presence of NADPH by LC-MS/MS analysis; format: ADME, Microsome
[18] = biological target: T1, Protein cereblon/Serine/threonine-protein kinase PLK4; test: Protac activity at CRBN/PLK4 in human MCF7 cells by Western blot analysis; format: cell-based
Target sequence in this assay (O00444 whole entry): as the sequence (O00444 whole entry, looked up) above
Target sequence in this assay (Q96SW2 whole entry): as the sequence (Q96SW2 whole entry, looked up) above

[19] = AUClast in ICR mouse at 2 mg/kg, iv measured upto 24 hrs by LC-M/MS analysis; format: ADME, organism-based; set-up: time < 24 hrs, dose 2 mg/kg, route iv; conditions: in vivo
[20] = Efflux ratio of apparent permeability across basolateral to apical side over apical to basolateral side in human Caco-2 cells; format: ADME, cell-based
[21] = biological target: T1, Protein cereblon/Serine/threonine-protein kinase PLK4; test: Protac activity at CRBN/PLK4 in human MCF7 cells at 1 uM in presence of BAF by Western blot analysis; format: cell-based
Target sequence in this assay (O00444 whole entry, looked up): as the sequence (O00444 whole entry, looked up) above
Target sequence in this assay (Q96SW2 whole entry, looked up): as the sequence (Q96SW2 whole entry, looked up) above

[22] = biological target: T2, CYP1A2 (Homo sapiens, UniProt P05177); test: Inhibition of CYP1A2 in human liver microsomes at 10 uM using alpha-Naphthoflavone as substrate preincubated for 10 mins followed by NADPH regenerating system addition and measured after 15 mins by LC-MS/MS analysis relative to control; format: ADME, Microsome; conditions: time 25 min
T2 sequence (P05177 whole entry): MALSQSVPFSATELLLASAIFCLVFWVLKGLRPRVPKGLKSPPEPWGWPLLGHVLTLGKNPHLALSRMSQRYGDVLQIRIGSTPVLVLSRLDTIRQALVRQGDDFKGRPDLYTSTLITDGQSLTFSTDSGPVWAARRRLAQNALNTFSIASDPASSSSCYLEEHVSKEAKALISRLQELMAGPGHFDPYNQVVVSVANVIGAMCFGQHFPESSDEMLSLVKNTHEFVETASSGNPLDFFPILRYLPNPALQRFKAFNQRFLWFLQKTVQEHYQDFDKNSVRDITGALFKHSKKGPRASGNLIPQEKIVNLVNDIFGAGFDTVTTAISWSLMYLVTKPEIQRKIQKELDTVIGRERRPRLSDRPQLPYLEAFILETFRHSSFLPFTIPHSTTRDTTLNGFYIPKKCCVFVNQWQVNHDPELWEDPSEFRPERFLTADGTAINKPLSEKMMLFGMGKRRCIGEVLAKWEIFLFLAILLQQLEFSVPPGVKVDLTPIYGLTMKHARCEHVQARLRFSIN

[23] = Metabolic stability in rat liver microsomes assessed as intrinsic clearance at 100 uM incubated for 60 mins in presence of NADPH by LC-MS/MS analysis; format: ADME, Microsome; conditions: read-out: CLH
[24] = biological target: CYP3A4 (Homo sapiens, UniProt P08684); test: Inhibition of CYP3A4 in human liver microsomes at 10 uM using ketoconazole as substrate preincubated for 10 mins followed by NADPH regenerating system addition and measured after 15 mins by LC-MS/MS analysis relative to control; format: ADME, Microsome; conditions: time 25 min
Sequence of CYP3A4 (P08684 whole entry): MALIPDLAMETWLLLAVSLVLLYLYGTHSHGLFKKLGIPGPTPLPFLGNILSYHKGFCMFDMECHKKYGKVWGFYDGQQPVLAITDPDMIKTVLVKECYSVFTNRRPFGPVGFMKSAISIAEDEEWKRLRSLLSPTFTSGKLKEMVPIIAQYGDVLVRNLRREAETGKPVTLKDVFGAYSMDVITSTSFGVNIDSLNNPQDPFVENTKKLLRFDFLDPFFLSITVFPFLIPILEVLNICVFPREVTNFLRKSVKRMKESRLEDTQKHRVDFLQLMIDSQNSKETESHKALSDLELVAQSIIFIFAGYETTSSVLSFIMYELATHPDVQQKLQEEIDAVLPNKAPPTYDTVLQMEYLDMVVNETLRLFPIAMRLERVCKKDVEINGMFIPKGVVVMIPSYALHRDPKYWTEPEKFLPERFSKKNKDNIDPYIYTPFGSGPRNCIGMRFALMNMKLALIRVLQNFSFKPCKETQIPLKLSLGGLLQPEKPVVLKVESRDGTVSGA

[25] = Metabolic stability in human liver microsomes assessed as compound remaining at 100 uM incubated for 60 mins in presence of NADPH by LC-MS/MS analysis; format: ADME, Microsome; conditions: read-out: Stability
[26] = Toxicity in nu/nu mouse xenografted with human MCF7 cells assessed as effect on lungs at 20 mg/kg, ip administered once every other day for 21 days by HE staining based analysis; format: organism-based; conditions: in vivo, 504 h, time 21 day
[27] = Cmax in ICR mouse at 20 mg/kg, ip measured upto 24 hrs by LC-M/MS analysis; format: ADME, organism-based; set-up: dose 20 mg/kg, time < 24 hrs, route ip; conditions: in vivo
[28] = Tmax in ICR mouse at 20 mg/kg, ip measured upto 24 hrs by LC-M/MS analysis; format: ADME, organism-based; conditions: in vivo

In the case of `Cc1cc(Nc2nc(NCc3ccc(F)cc3F)nc3c2cnn3C2CCN(C(=O)C3CCN(c4ccc5c(c4)C(=O)N(C4CCC(=O)NC4=O)C5=O)CC3)CC2)n[nH]1` (stereo not drawn), the remaining at 1 h, 100 µM [1] is reported as 83.6%, the inhibition [2] is reported as “Active” and the Activity [3] is reported as “Non-Toxic”. The microsomal CLint at 100 µM [4] was 21.7 µL/min/mg, the Activity [5] was 68.3% and the Papp B→A at 2 h, 2 µM [6] was 0.97 ×10⁻⁶ cm/s. The Activity [7] was “Dose-Dependent Effect”, the remaining at 2 h, 100 µM [8] was 69.9% and the bioavailability [9] was 149%. The inhibition in vivo at 20 mg/kg [10] was 73.7%, the clearance [11] was 34.9 mL/min/kg and the remaining at 1 h, 100 µM [12] was 93.1%. The IC50 [13] was 73 nM, the Activity [14] was “Non-Toxic” and the microsomal CLint at 100 µM [15] was 17.1 µL/min/mg. For the same molecule, the Activity [16] was “Non-Toxic”, the half-life at 100 µM [17] was 1.35 h and the DC50 [18] was 19.5 nM. The AUC(0-t) at 24 h [19] was 941 ng·h/mL, the efflux ratio [20] was 2.02 and the Activity [21] was “inactive”. The inhibition at 0.25 h, 10 µM [22] was 10.4%, the microsomal CLint at 100 µM [23] was 20.9 µL/min/mg and the inhibition at 0.25 h, 10 µM [24] was 20.4%. The remaining at 1 h, 100 µM [25] was 51.7%, the Activity [26] was “Non-Toxic” and the Cmax [27] was 4570 ng/mL. For the same molecule, the Tmax [28] was 1.42 h.
